In patent US20210069169A1, “PHARMACEUTICAL COMPOSITIONS” (priority 2007, published 2021):
Where two headings read alike, the source gives them in different places.

Assays:
[1] = ERC-213: serum DHEA and eleven metabolites after daily intravaginal DHEA suppositories; format: in vivo, postmenopausal women; conditions: highest dose (Table 2)
Text: The primary objective of that study was the evaluation of the systemic bioavailability of DHEA and its metabolites following daily intravaginal application of suppositories at four different DHEA concentrations. This study was a randomized, placebo-controlled and double-blind trial of 10-subjects per arm.

[2] = tested on: postmenopausal women suffering from vaginal atrophy; assay: ERC-210: vaginal examination (secretions, color, epithelial integrity, thickness); format: in vivo; conditions: 2, 4, 8 and 12 weeks
Text: At the same time intervals of 2, 4, 8 and 12 weeks, the gynecologist or physician in charge of the study at each site performed a vaginal exam to evaluate the degree of severity (none, mild, moderate or severe, analyzed using values of 0, 1, 2 and 3, respectively) for the main signs of vaginal atrophy, namely vaginal secretions, vaginal color, vaginal epithelial integrity and vaginal epithelial surface thickness. […] In fact. the beneficial effects observed by the gynecologist and or physician are almost superimposable to those self-reported by women on their most bothersome symptoms.
Vaginal examination was performed at screening and then at day 1 and at 2, 4, 8 and 12 weeks. Vaginal secretions, vaginal color, vaginal epithelial integrity and vaginal epithelial surface thickness were evaluated according to the following degrees of severity: none, mild, moderate or severe.

[3] = tested on: endometrium; assay: ERC-210: endometrial biopsy; format: in vivo, postmenopausal women; conditions: 3 months intravaginal; biopsies before and after 12 weeks
Method: Endometrial biopsy was performed at screening and at month 3 at end of study. All biopsies were examined by the same pathologist at the central laboratory (Dr. Robert Dubé, Department of cytology-pathology, Enfant-Jésus Hospital, Quebec City, Canada).

[4] = Example 2: serum steroids after oral DHEA capsules or percutaneous DHEA cream or gel
Text: Thirty-six healthy 60-70-year-old postmenopausal women participated in the study after IRB approval and having given their written informed consent. Body weight was within ±20% of normal body weight according to Metropolitan Life Tables.
This study was a randomized open-label trial of 12 subjects per arm. After written informed consent was obtained and women were found eligible, each subject was randomized to receive DHEA by cream, get or orally. Daily, before breakfast, for 14 days, subjects received, at the research clinic, either 4 g of 10% DHEA gel or 4 g of 10% DHEA cream applied on a total 30 cm×30 cm area of the thighs or two 50 mg capsules of DHEA orally before breakfast.
Blood sampling was performed at 08:00-09:00 h at screening and before application of DHEA, on the first day of dosing, as well as on days 2, 4, 7, 10 and 14. On the 1st and 14th days, blood samples were obtained at 0.5 h, 1 h, 1.5 h, 2 h, 3 h, 4 h, 5 h, 6 h, 7 h, 8 h, 12 h and 24 h following DHEA administration. […] Serum steroid analysis
DHEA, DHEA-S, androst-5-ene-3β,17β-diol (5-diol), testosterone, androstenedione (4-dione), 17β-estradiol (E2), estrone (E1), estrone sulfate (E1-S), androsterone glucuronide (ADT-G), and androstane-3,17β-diol glucuronide (3 α-diol-G) were measured by gas chromatography/mass spectrometry (DHEA, 5-diol, 4-dione, testosterone, E1 and E2) using electron impact or chemical ionization and by liquid chromatography/tandem mass spectrometry using turboionspray (DHEA-S, E1-S, ADT-G and 3α-diol-G) as described (Labrie, Bélanger et a., 2006; Labrie, Bélanger, et al, 2007b and Swanson et al. 2007).
On days 1 and 14, the area under the curve of the serum concentration of each steroid was measured between 0 h and 24 h (AUC0-24 h). The areas under the curves were calculated by a linear trapezoidal method (model-independent). The relative bioavailability of the DHEA gel, DHEA cream and DHEA capsules was based on the mean difference in the log-transformed AUC values, All calculations were performed with the SAS software (SAS Institute, Cary, N.C., USA).

[5] = tested on: postmenopausal women; conditions: cited from earlier work
[6] = cited from earlier work
[7] = oral 150 mg (Buster et al. 1992)
[8] = oral 300 mg (Buster et al. 1992)

With `C[C@]12CC[C@H](O)CC1=CC[C@@H]1[C@@H]2CC[C@]2(C)C(=O)CC[C@@H]12` [DHEA, dehydroepiandrosterone] the “Average serum DHEA” value [1] was 4.76 ± 0.42 ng/mL, the “Signs of vaginal atrophy at vaginal exam” value [2] was “highly statistically significant improvement of all four signs of vaginal atrophy” and the Endometrial histology [3] was “no effect on endometrial histology”. For the same compound, the “Higher amount of circulating DHEA-S at same DHEA exposure, oral vs percutaneous” value ([4]; female, human, serum, po) was 6.7-9.0 fold, the “Transformation of DHEA into 4-dione, oral vs percutaneous” value ([4]; female, human, serum, po) was 2.70-3.76 times and the “Efficacy of transformation into active androgens” value ([4]; percutaneous DHEA (DHEA change 406%)) was 52%.

In the case of `C[C@]12CC[C@@H]3c4ccc(O)cc4CC[C@H]3[C@@H]1CC[C@@H]2O` [E2, 17β-estradiol], the “% of cases with persisting dyspareunia” value ([5]; 25 μg intravaginally, 12 months) is given as 12.4% and the “% of patients with pH less than 5” value ([5]; 12 weeks intravaginal 25 μg E2 (Bachmann et al. 2008)) is given as 51%.

For `CCCCC(=O)O[C@H]1CC[C@H]2[C@@H]3CCc4cc(O)ccc4[C@H]3CC[C@]12C` [estradiol valerate], the “Increase of Ki labeling in endometrium” value ([5]; 2 mg/day, 3 months) is listed as 50%.

In the case of `C[C@]12CC[C@H](O)CC1=CC[C@@H]1[C@@H]2CC[C@]2(C)C(=O)CC[C@@H]12` [micronized DHEA], the “Maximal serum DHEA-S” value [6, 7] is given as about 10 µg/mL, the Maximal serum testosterone [6, 7] is given as about 1.6 ng/mL and the “Maximal serum DHEA” value [6, 8] is given as about 15 ng/mL. For the same compound, the Maximal serum testosterone [6, 8] was about 2.75 ng/mL.

In the case of `CCCCCCCCCCC(=O)O[C@H]1CC[C@H]2[C@@H]3CCC4=CC(=O)CC[C@]4(C)[C@H]3CC[C@]12C` [testosterone undecanoate], the “Effect on the endometrium” value ([5]; 40 mg every second day) is listed as “no effect on the endometrium”.
